Reference: patent US7094930B2, “Pharmaceutically acceptable salts of sertraline and pharmaceutical compositions thereof” (Pfizer Inc, priority 2003, dated 2006)
Where a name gives a salt, the structure may show the parent alone.

Columns and labels:
Type in all cases: physicochemical
pH in aqueous solution = conditions: (native) pH of the aqueous solution of the salt
[1] = hygroscopicity at relative humidity
aqueous solubility = test: aqueous solubility

pH in aqueous solution (pH in aqueous solution) | hygroscopicity ([1]; at 90% relative humidity) | aqueous solubility (aqueous solubility) [µg/mL] | hygroscopicity ([1]; at 100% relative humidity) | SMILES
3.4 | approximately 0.3% | 2800 |  | CN[C@H]1CC[C@@H](c2ccc(Cl)c(Cl)c2)c2ccccc21 [sertraline fumaric acid salt, Fumaric Acid Salt of Sertraline]
4.6 | approximately 0.3% | 900 |  | CN[C@H]1CC[C@@H](c2ccc(Cl)c(Cl)c2)c2ccccc21 [sertraline benzenesulfonic acid salt, Benzenesulfonic Acid Salt of Sertraline]
5.2 |  | 520 | approximately 0.1% | CN[C@H]1CC[C@@H](c2ccc(Cl)c(Cl)c2)c2ccccc21 [sertraline benzoic acid salt, Benzoic Acid Salt of Sertraline]
4.1 | approximately 0.1% | 400 |  | CN[C@H]1CC[C@@H](c2ccc(Cl)c(Cl)c2)c2ccccc21 [sertraline p-toluenesulfonic acid salt, P-Toluenesulfonic Acid Salt of Sertraline]
4.6 |  | 1500 | approximately 0.4% | CN[C@H]1CC[C@@H](c2ccc(Cl)c(Cl)c2)c2ccccc21 [sertraline (−)-camphor-10-sulfonic acid salt] [(−)-Camphor-10-sulfonic Acid Salt of Sertraline]
3.0 |  | 4800 | less than 0.1% | CN[C@H]1CC[C@@H](c2ccc(Cl)c(Cl)c2)c2ccccc21 [sertraline L-tartaric acid salt, L-Tartaric Acid Salt of Sertraline]
